Experimental data as given in PubChem BioAssay AID1963973 (Molecular Pharmacology Branch, DTP, NCI, 2024).
pIC50: −log10 of the molar value. One block for each compound: values may come before it.

Test system: 883617-216-R-J1-PDC tumor spheroids, viability
Test: Anticancer human tumor 883617-216-R-J1-PDC patient-derived bladder carcinoma cell line growth inhibition [PI3K]
Conditions: spheroids with HUVEC and MSC; for pIC50: curve of first compound; for viability, T/C: stronger effect = lower value
In short: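 We assembled tumor spheroids that included a stromal compartment of HUVEC and MSCs, then exposed them to targeted agents alone and together with PI3K pathway inhibitors. Concentration series descended by half-log from clinically achievable Cmax levels. Viability served as the endpoint.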

[1] = second compound 0.0316 µM, first compound 0.0316 µM
[2] = second compound 0.0316 µM, first compound 0.1 µM
[3] = second compound 0.0316 µM, first compound 0.316 µM
[4] = second compound 0.0316 µM, first compound 1 µM
[5] = second compound 0.0316 µM, first compound 3.16 µM
[6] = second compound 0.0316 µM, first compound 10 µM
[7] = second compound 0.1 µM, first compound 0.0316 µM
[8] = second compound 0.1 µM, first compound 0.1 µM
[9] = second compound 0.1 µM, first compound 0.316 µM
[10] = second compound 0.1 µM, first compound 1 µM
[11] = second compound 0.1 µM, first compound 3.16 µM
[12] = second compound 0.1 µM, first compound 10 µM
[13] = second compound 0.316 µM, first compound 0.0316 µM
[14] = second compound 0.316 µM, first compound 0.1 µM
[15] = second compound 0.316 µM, first compound 0.316 µM
[16] = second compound 0.316 µM, first compound 1 µM
[17] = second compound 0.316 µM, first compound 3.16 µM
[18] = second compound 0.316 µM, first compound 10 µM
[19] = second compound 1 µM, first compound 0.0316 µM
[20] = second compound 1 µM, first compound 0.1 µM
[21] = second compound 1 µM, first compound 0.316 µM
[22] = second compound 1 µM, first compound 1 µM
[23] = second compound 1 µM, first compound 3.16 µM
[24] = second compound 1 µM, first compound 10 µM
[25] = second compound 3.16 µM, first compound 0.0316 µM
[26] = second compound 3.16 µM, first compound 0.1 µM
[27] = second compound 3.16 µM, first compound 0.316 µM
[28] = second compound 3.16 µM, first compound 1 µM
[29] = second compound 3.16 µM, first compound 3.16 µM
[30] = second compound 3.16 µM, first compound 10 µM
[31] = second compound 10 µM, first compound 0.0316 µM
[32] = second compound 10 µM, first compound 0.1 µM
[33] = second compound 10 µM, first compound 0.316 µM
[34] = second compound 10 µM, first compound 1 µM
[35] = second compound 10 µM, first compound 3.16 µM
[36] = second compound 10 µM, first compound 10 µM
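Also: spheroids exposed to agents for 7 days before the viability read.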

- pIC50 (second compound 0.0316 µM): > 7.50
- pIC50 (second compound 0.1 µM): > 7.50
- pIC50 (second compound 0.316 µM): > 7.50
- pIC50 (second compound 1 µM): > 7.50
- pIC50 (second compound 3.16 µM): > 7.50
- pIC50 (second compound 10 µM): > 7.50
Compound: C=CC(=O)N1CCN(c2nc(=O)n(-c3c(C)ccnc3C(C)C)c3nc(-c4c(O)cccc4F)c(F)cc23)C(C)C1 (stereo not drawn) + Cc1nc(NC(=O)N2CCCC2C(N)=O)sc1-c1ccnc(C(C)(C)C(F)(F)F)c1
- viability, T/C [1]: 56.5%
- viability, T/C [2]: 45.7%
- viability, T/C [3]: 44.1%
- viability, T/C [4]: 51.8%
- viability, T/C [5]: 70.4%
- viability, T/C [6]: 60.9%
- viability, T/C [7]: 37.3%
- viability, T/C [8]: 35.9%
- viability, T/C [9]: 40.3%
- viability, T/C [10]: 34.9%
- viability, T/C [11]: 52.9%
- viability, T/C [12]: 46.2%
- viability, T/C [13]: 32.5%
- viability, T/C [14]: 22.4%
- viability, T/C [15]: 25.6%
- viability, T/C [16]: 27.5%
- viability, T/C [17]: 34.6%
- viability, T/C [18]: 35%
- viability, T/C [19]: 14.7%
- viability, T/C [20]: 12.8%
- viability, T/C [21]: 13.9%
- viability, T/C [22]: 17.1%
- viability, T/C [23]: 26.2%
- viability, T/C [24]: 20.5%
- viability, T/C [25]: 10.3%
- viability, T/C [26]: 6.71%
- viability, T/C [27]: 6.68%
- viability, T/C [28]: 9.84%
- viability, T/C [29]: 12.8%
- viability, T/C [30]: 11.2%
- viability, T/C [31]: 3.61%
- viability, T/C [32]: 2.75%
- viability, T/C [33]: 3.18%
- viability, T/C [34]: 4.91%
- viability, T/C [35]: 7.96%
- viability, T/C [36]: 6.43%

- pIC50 (second compound 0.0316 µM): 6.65
- pIC50 (second compound 0.1 µM): 7.58
- pIC50 (second compound 0.316 µM): 8.38
- pIC50 (second compound 1 µM): > 8.50
- pIC50 (second compound 3.16 µM): > 8.50
- pIC50 (second compound 10 µM): > 8.50
Compound: CCN1CCN(Cc2ccc(Nc3ncc(F)c(-c4cc(F)c5nc(C)n(C(C)C)c5c4)n3)nc2)CC1 + Cc1nc(NC(=O)N2CCCC2C(N)=O)sc1-c1ccnc(C(C)(C)C(F)(F)F)c1
- viability, T/C (second compound 0.0316 µM, first compound 0.00316 µM): 75.7%
- viability, T/C (second compound 0.0316 µM, first compound 0.01 µM): 64.7%
- viability, T/C [1]: 64.2%
- viability, T/C [2]: 53.8%
- viability, T/C [3]: 49.9%
- viability, T/C [4]: 39.6%
- viability, T/C (second compound 0.1 µM, first compound 0.00316 µM): 59.7%
- viability, T/C (second compound 0.1 µM, first compound 0.01 µM): 56.3%
- viability, T/C [7]: 46.4%
- viability, T/C [8]: 44.4%
- viability, T/C [9]: 44.3%
- viability, T/C [10]: 36.3%
- viability, T/C (second compound 0.316 µM, first compound 0.00316 µM): 53.3%
- viability, T/C (second compound 0.316 µM, first compound 0.01 µM): 39.7%
- viability, T/C [13]: 37%
- viability, T/C [14]: 31.4%
- viability, T/C [15]: 26.6%
- viability, T/C [16]: 28.5%
- viability, T/C (second compound 1 µM, first compound 0.00316 µM): 29.1%
- viability, T/C (second compound 1 µM, first compound 0.01 µM): 25.5%
- viability, T/C [19]: 24.1%
- viability, T/C [20]: 17.1%
- viability, T/C [21]: 21.4%
- viability, T/C [22]: 19.3%
- viability, T/C (second compound 3.16 µM, first compound 0.00316 µM): 12.3%
- viability, T/C (second compound 3.16 µM, first compound 0.01 µM): 13.7%
- viability, T/C [25]: 11.8%
- viability, T/C [26]: 10.5%
- viability, T/C [27]: 14.6%
- viability, T/C [28]: 10.5%
- viability, T/C (second compound 10 µM, first compound 0.00316 µM): 7.72%
- viability, T/C (second compound 10 µM, first compound 0.01 µM): 5.77%
- viability, T/C [31]: 5.3%
- viability, T/C [32]: 4.95%
- viability, T/C [33]: 5.02%
- viability, T/C [34]: 5.41%

- pIC50 (second compound 0.0316 µM): 6.60
- pIC50 (second compound 0.1 µM): 6.63
- pIC50 (second compound 0.316 µM): > 7.50
- pIC50 (second compound 1 µM): > 7.50
- pIC50 (second compound 3.16 µM): > 7.50
- pIC50 (second compound 10 µM): > 7.50
Compound: Cn1ncc(Cl)c1-c1cc(C(=O)NC(CN)Cc2cccc(F)c2)sc1Cl (stereo not drawn) + Cc1nc(NC(=O)N2CCCC2C(N)=O)sc1-c1ccnc(C(C)(C)C(F)(F)F)c1
- viability, T/C [1]: 88.3%
- viability, T/C [2]: 67.7%
- viability, T/C [3]: 45.5%
- viability, T/C [4]: 26.1%
- viability, T/C [5]: 11.8%
- viability, T/C [6]: 5.02%
- viability, T/C [7]: 75%
- viability, T/C [8]: 67.1%
- viability, T/C [9]: 42.7%
- viability, T/C [10]: 25%
- viability, T/C [11]: 11.1%
- viability, T/C [12]: 4.24%
- viability, T/C [13]: 42.6%
- viability, T/C [14]: 41.6%
- viability, T/C [15]: 34.4%
- viability, T/C [16]: 18.6%
- viability, T/C [17]: 8.47%
- viability, T/C [18]: 2.6%
- viability, T/C [19]: 29.2%
- viability, T/C [20]: 30.8%
- viability, T/C [21]: 20.7%
- viability, T/C [22]: 13.9%
- viability, T/C [23]: 7.58%
- viability, T/C [24]: 2.44%
- viability, T/C [25]: 15.4%
- viability, T/C [26]: 13.4%
- viability, T/C [27]: 12.4%
- viability, T/C [28]: 8.34%
- viability, T/C [29]: 5.31%
- viability, T/C [30]: 1.74%
- viability, T/C [31]: 9.56%
- viability, T/C [32]: 7.78%
- viability, T/C [33]: 5.02%
- viability, T/C [34]: 5.6%
- viability, T/C [35]: 3.31%
- viability, T/C [36]: 0.93%

- pIC50 (second compound 0.0316 µM): 5.04
- pIC50 (second compound 0.1 µM): 5.59
- pIC50 (second compound 0.316 µM): > 7.50
- pIC50 (second compound 1 µM): > 7.50
- pIC50 (second compound 3.16 µM): > 7.50
- pIC50 (second compound 10 µM): > 7.50
Compound: Cn1nccc1Nc1nccc(-c2ccn(C(CO)c3ccc(Cl)c(F)c3)c(=O)c2)n1 (stereo not drawn) + Cc1nc(NC(=O)N2CCCC2C(N)=O)sc1-c1ccnc(C(C)(C)C(F)(F)F)c1
- viability, T/C [1]: 82.5%
- viability, T/C [2]: 79.8%
- viability, T/C [3]: 68.7%
- viability, T/C [4]: 68.3%
- viability, T/C [5]: 68%
- viability, T/C [6]: 46.3%
- viability, T/C [7]: 69.7%
- viability, T/C [8]: 72.5%
- viability, T/C [9]: 66.7%
- viability, T/C [10]: 56%
- viability, T/C [11]: 48.7%
- viability, T/C [12]: 33.2%
- viability, T/C [13]: 47.3%
- viability, T/C [14]: 44.1%
- viability, T/C [15]: 43.9%
- viability, T/C [16]: 34.5%
- viability, T/C [17]: 30.8%
- viability, T/C [18]: 24.4%
- viability, T/C [19]: 26.2%
- viability, T/C [20]: 25.7%
- viability, T/C [21]: 26.3%
- viability, T/C [22]: 20.5%
- viability, T/C [23]: 15.1%
- viability, T/C [24]: 12.8%
- viability, T/C [25]: 13.3%
- viability, T/C [26]: 12.2%
- viability, T/C [27]: 9.5%
- viability, T/C [28]: 9.97%
- viability, T/C [29]: 8.33%
- viability, T/C [30]: 7.21%
- viability, T/C [31]: 5.74%
- viability, T/C [32]: 5.78%
- viability, T/C [33]: 4.59%
- viability, T/C [34]: 4.62%
- viability, T/C [35]: 3.21%
- viability, T/C [36]: 1.26%
